Tested on: 885724-159-R-J1-PDC complex spheroid viability
Assay: Anticancer human tumor 885724-159-R-J1-PDC patient-derived pancreatic adenocarcinoma cell line growth inhibition [POLQ]
Details: for IC50: curve of first compound; for viability, T/C: stronger effect = lower value
Protocol: Multicellular complex tumor spheroid response to Polymerase (POL) inhibitors (novobiocin, ART-558, RP6685) in combination with a variety of drugs and investigational agents in selected tumor cell lines
The POL inhibitors (novobiocin, ART-558, and RP6685) were evaluated both individually and in combination with standard of care and investigational anticancer small molecules within a complex spheroid model of solid tumors. . Complex spheroids include a stromal component modeled by human endothelial cells (HUVEC) and fibroblasts modeled by human mesenchymal stem cells (MSCs). The concentration ranges selected for each drug and investigational agent were based upon clinically achievable concentrations if the clinical Cmax of the agent was known.
Compounds. The drugs and investigational agents: novobiocin (NSC847541), ART-558 (NSC835418), RP-6685 (NSC848927), peposertib (NSC802822), ceralasertib (NSC780249), elimusertib (NSC800525), camonsertib (NSC841442), AZD-1390 (NSC803789), olaparib (NSC753686), talazoparib (NSC767125), rucaparib (NSC756644), sotorasib (NSC818433), MRTX-1133 (NSC836407), SN-38 (NSC673596), topotecan (NSC609699), epotoside (NSC141540), doxorubicin (NSC123127), gemcitabine (NSC613327), 5-fluorouracil (NSC19893), paclitaxel (NSC125973), vemurafenib (NSC761431), MSA-2 (NSC828583), SN-011 (NSC837082), adavosertib (NSC754352), prexasertib (NSC758257), carboplatin (NSC241240) and oxaliplatin (NSC266046), were obtained from the National Cancer Institute (NCI) Developmental Therapeutics Program Chemical Repository (21). The FDA-approved anticancer drug set is available from the Developmental Therapeutics Program at https://dtp.cancer.gov/organization/dscb/obtaining/. […] The stock solutions were prepared in dimethyl sulfoxide (DMSO, Sigma-Aldrich, St. Louis, MO, cat. D2650), except for the platinum compounds which were prepared in saline (Quality Biological, Gaithersburg, MD, cat. 114-055-101), at 800-fold the tested concentration and stored at -70 degrees C prior to their use. All drugs and investigational agents were tested over a range starting from a high concentration at or near the clinical Cmax and decreasing in half-log increments. If the clinical Cmax for an agent had not been determined, the highest concentration tested was 10 microM, except for SN-38, which was tested at a high concentration of 1 microM.
Cell Culture. All cells were maintained in an incubator at 37 degrees C and 5% CO2 with 95% humidity. The PDC lines were cultured according to standard operating procedures established by the NCI PDMR (https://pdmr.cancer.gov). Table 3 of the manuscript, lists the cell lines along with the number of the three cell types plated to form the mct-spheroids and media for tumor cell growth. After thawing, all PDC lines, except 997537-175-T-J1-PDC and 415267-285-R-J2-PDC, were cultured in Matrigel-coated flasks prepared with a working solution of 1X Ham's F-12 nutrient mix, without supplementation (Thermo Fisher Scientific, cat. 11765054), 100 U/mL penicillin-streptomycin (Thermo Fisher Scientific, cat. 15140122), and 2.5% Matrigel (Corning Inc., Corning, NY, cat. 354248) for the first three passages. The two PDC lines 997537-175-T-J1-PDC and 415267-285-R-J2-PDC were cultured on uncoated flasks. The 857933-349-R-J2-PDC line was cultured in 6C/Colon 1B media containing advanced DMEM/F-12 (Thermo Fisher Scientific, cat. 12634028), 10 mM HEPES (Thermo Fisher Scientific, cat. 15630080), 1X GlutaMAX supplement (Thermo Fisher Scientific, cat. 35050061), 0.1 mg/mL primocin (InvivoGen, San Diego, CA, cat. ant-pm-2), 10% defined fetal bovine serum, heat inactivated (HyClone Laboratories Inc., Logan, UT, cat. SH30070.03HI), 50% L-WRN conditioned media (ATCC, cat. CRL-3276), 1.25 mM N-Acetyl-L-cysteine (Sigma-Aldrich, cat. A9165), 10 mM nicotinamide (Sigma-Aldrich, cat. N0636), 1X B-27 supplement (Thermo Fisher Scientific, cat. 17504044), 1X N-2 supplement (Thermo Fisher Scientific, cat. […]

[1] = second compound 0.0316 µM, first compound 0.0316 µM
[2] = second compound 0.0316 µM, first compound 0.1 µM
[3] = second compound 0.0316 µM, first compound 0.316 µM
[4] = second compound 0.0316 µM, first compound 1 µM
[5] = second compound 0.1 µM, first compound 0.0316 µM
[6] = second compound 0.1 µM, first compound 0.1 µM
[7] = second compound 0.1 µM, first compound 0.316 µM
[8] = second compound 0.1 µM, first compound 1 µM
[9] = second compound 0.316 µM, first compound 0.0316 µM
[10] = second compound 0.316 µM, first compound 0.1 µM
[11] = second compound 0.316 µM, first compound 0.316 µM
[12] = second compound 0.316 µM, first compound 1 µM
[13] = second compound 1 µM, first compound 0.0316 µM
[14] = second compound 1 µM, first compound 0.1 µM
[15] = second compound 1 µM, first compound 0.316 µM
[16] = second compound 1 µM, first compound 1 µM
[17] = second compound 3.16 µM, first compound 0.0316 µM
[18] = second compound 3.16 µM, first compound 0.1 µM
[19] = second compound 3.16 µM, first compound 0.316 µM
[20] = second compound 3.16 µM, first compound 1 µM
[21] = second compound 10 µM, first compound 0.0316 µM
[22] = second compound 10 µM, first compound 0.1 µM
[23] = second compound 10 µM, first compound 0.316 µM
[24] = second compound 10 µM, first compound 1 µM
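Note: spheroids exposed to compounds for 7 days.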

## CCc1c2c(nc3ccc(O)cc13)-c1cc3c(c(=O)n1C2)COC(=O)[C@]3(O)CC + COC1C(OC(N)=O)C(O)C(Oc2ccc3c(O)c(NC(=O)c4ccc(O)c(CC=C(C)C)c4)c(=O)oc3c2C)OC1(C)C
Second compound 0.0316 µM
  IC50: 42.2 nM
Second compound 0.1 µM
  IC50: 48.9 nM
Second compound 0.316 µM
  IC50: 38.3 nM
Second compound 1 µM
  IC50: 41.1 nM
Second compound 3.16 µM
  IC50: 35.3 nM
Second compound 10 µM
  IC50: 35.8 nM
Second compound 0.0316 µM, first compound 0.00316 µM
  viability, T/C: 66.3%
Second compound 0.0316 µM, first compound 0.01 µM
  viability, T/C: 58.3%
[1]
  viability, T/C: 44.8%
[2]
  viability, T/C: 47.9%
[3]
  viability, T/C: 29%
[4]
  viability, T/C: 5.01%
Second compound 0.1 µM, first compound 0.00316 µM
  viability, T/C: 73.1%
Second compound 0.1 µM, first compound 0.01 µM
  viability, T/C: 58.2%
[5]
  viability, T/C: 47.3%
[6]
  viability, T/C: 49.9%
[7]
  viability, T/C: 28.7%
[8]
  viability, T/C: 4.25%
Second compound 0.316 µM, first compound 0.00316 µM
  viability, T/C: 80.1%
Second compound 0.316 µM, first compound 0.01 µM
  viability, T/C: 54.3%
[9]
  viability, T/C: 48.6%
[10]
  viability, T/C: 45.7%
[11]
  viability, T/C: 30.9%
[12]
  viability, T/C: 5%
Second compound 1 µM, first compound 0.00316 µM
  viability, T/C: 75.9%
Second compound 1 µM, first compound 0.01 µM
  viability, T/C: 60.4%
[13]
  viability, T/C: 44.1%
[14]
  viability, T/C: 49.9%
[15]
  viability, T/C: 27.6%
[16]
  viability, T/C: 4.79%
Second compound 3.16 µM, first compound 0.00316 µM
  viability, T/C: 76.4%
Second compound 3.16 µM, first compound 0.01 µM
  viability, T/C: 59%
[17]
  viability, T/C: 45.1%
[18]
  viability, T/C: 44.3%
[19]
  viability, T/C: 30%
[20]
  viability, T/C: 4.76%
Second compound 10 µM, first compound 0.00316 µM
  viability, T/C: 68.7%
Second compound 10 µM, first compound 0.01 µM
  viability, T/C: 52.3%
[21]
  viability, T/C: 48.9%
[22]
  viability, T/C: 43.5%
[23]
  viability, T/C: 27.5%
[24]
  viability, T/C: 4.27%

## Nc1ccn(C2OC(CO)C(O)C2(F)F)c(=O)n1 (centres undefined) + COC1C(OC(N)=O)C(O)C(Oc2ccc3c(O)c(NC(=O)c4ccc(O)c(CC=C(C)C)c4)c(=O)oc3c2C)OC1(C)C
Second compound 0.0316 µM
  IC50: 800 nM
Second compound 0.1 µM
  IC50: 1860 nM
Second compound 0.316 µM
  IC50: 3110 nM
Second compound 1 µM
  IC50: 186 nM
Second compound 3.16 µM
  IC50: 1550 nM
Second compound 10 µM
  IC50: > 10000 nM
[1]
  viability, T/C: 61.7%
[2]
  viability, T/C: 58.4%
[3]
  viability, T/C: 51.4%
[4]
  viability, T/C: 49.7%
Second compound 0.0316 µM, first compound 3.16 µM
  viability, T/C: 46.8%
Second compound 0.0316 µM, first compound 10 µM
  viability, T/C: 44.3%
[5]
  viability, T/C: 61.6%
[6]
  viability, T/C: 57.6%
[7]
  viability, T/C: 54%
[8]
  viability, T/C: 52.4%
Second compound 0.1 µM, first compound 3.16 µM
  viability, T/C: 50.4%
Second compound 0.1 µM, first compound 10 µM
  viability, T/C: 40%
[9]
  viability, T/C: 67.8%
[10]
  viability, T/C: 55%
[11]
  viability, T/C: 52.7%
[12]
  viability, T/C: 59.5%
Second compound 0.316 µM, first compound 3.16 µM
  viability, T/C: 51.8%
Second compound 0.316 µM, first compound 10 µM
  viability, T/C: 44%
[13]
  viability, T/C: 71.1%
[14]
  viability, T/C: 51.3%
[15]
  viability, T/C: 48.4%
[16]
  viability, T/C: 51.6%
Second compound 1 µM, first compound 3.16 µM
  viability, T/C: 45.2%
Second compound 1 µM, first compound 10 µM
  viability, T/C: 41.2%
[17]
  viability, T/C: 62.2%
[18]
  viability, T/C: 59.4%
[19]
  viability, T/C: 52.6%
[20]
  viability, T/C: 48.1%
Second compound 3.16 µM, first compound 3.16 µM
  viability, T/C: 53.9%
Second compound 3.16 µM, first compound 10 µM
  viability, T/C: 44.2%
[21]
  viability, T/C: 69.6%
[22]
  viability, T/C: 53.4%
[23]
  viability, T/C: 52.9%
[24]
  viability, T/C: 56.9%
Second compound 10 µM, first compound 3.16 µM
  viability, T/C: 50.5%
Second compound 10 µM, first compound 10 µM
  viability, T/C: 45.7%
